The source made the active and inactive calls. The rule behind the calls is not given here.
Key:
J774 [1] = assay: Cytotoxicity against mouse J774 cells at 25 uM incubated for 72 hrs by MTT assay relative to control; type: toxicity, cell-based; conditions: j774, 72 h
Leishmania donovani [2] = assay: Antileishmanial activity against Leishmania donovani amastigotes infected in J774 macrophage assessed as inhibition of parasite growth at 25 uM incubated for 48 hrs by luciferase assay relative to control; type: functional; parameters: scale not given: the % may be the effect or the level left
[3] = Stability of the compound in Tris-buffer at 10 ug/ml at pH 7.4 measured upto 120 min by HPLC analysis; type: physicochemical; conditions: at 10 µg/mL, read-out: Stability
Leishmania donovani [4] = assay: Antileishmanial activity against amastigote form of Leishmania donovani infected in BALB/c mouse assessed as inhibition of parasite growth in spleen at 20 mg/kg, po measured after 1 week post treatment by geimsa staining based analysis relative to control; type: functional; parameters: scale not given: the % may be the effect or the level left; conditions: time 1 weeks
[5] = Toxicity in BALB/c mouse assessed as effect on body weight at 10 to 40 mg/kg, po measured after 1 week; type: organism-based; conditions: in vivo, 168 h, dose 10-40 mg/kg, time 1 weeks
Splenocyte = assay: Immunostimulatory activity in mouse splenocyte assessed as fold increase in IL-12 synthesis at 10 to 40 mg/kg measured after 1 week by RT-PCR analysis; type: functional; conditions: dose 10-40 mg/kg; time 1 weeks
Leishmania donovani [6] = assay: Antileishmanial activity against Leishmania donovani infected in golden hamster assessed as inhibition of parasite growth in liver at 40 mg/kg, po administered for 7 days and measured after 28 days by giemsa staining based analysis relative to control; type: functional; parameters: scale not given: the % may be the effect or the level left; conditions: time 28 day
Leishmania donovani [7] = assay: Antileishmanial activity against Leishmania donovani infected in golden hamster assessed as inhibition of parasite growth in spleen at 40 mg/kg, po administered for 7 days and measured after 28 days by giemsa staining based analysis relative to control; type: functional; parameters: scale not given: the % may be the effect or the level left; conditions: time 28 day
Leishmania donovani [8] = assay: Antileishmanial activity against Leishmania donovani infected in golden hamster assessed as inhibition of parasite growth in spleen at 80 mg/kg, po administered for 7 days and measured after 28 days by giemsa staining based analysis relative to control; type: functional; parameters: scale not given: the % may be the effect or the level left; conditions: time 28 day
[9] = Renal toxicity in golden hamster assessed as effect on creatinine level at 40 mg/kg, po measured after 28 days post infection; type: organism-based, Mesocricetus auratus; conditions: in vivo, 672 h, time 28 day
J774 [10] = assay: Immunostimulatory activity in mouse J774 macrophage infected with Leishmania donovani assessed as decrease in IL-10 level at 25 uM measured after 24 hrs by RT-PCR analysis relative to control; type: functional; parameters: scale not given: the % may be the effect or the level left
J774 [11] = assay: Downregulation of Akt phosphorylation in mouse J774 macrophage infected with Leishmania donovani at 25 uM measured after 4 to 8 hrs by immunoblot analysis; type: functional, cell-based; conditions: time 4-8 hrs
J774 [12] = assay: Downregulation of CREB phosphorylation level at Ser133 residue in mouse J774 macrophage infected with Leishmania donovani at 25 uM measured after 12 to 16 hrs by immunoblot analysis; type: functional, cell-based; conditions: time 12-16 hrs
Leishmania donovani [13] = assay: Antileishmanial activity against Leishmania donovani promastigotes assessed as decrease in intracellular proline level at 25 uM measured after 24 hrs (reference value: 6.27 mM); type: functional
Leishmania donovani [14] = assay: Induction of cell cycle arrest in Leishmania donovani promastigotes assessed as accumulation of cells at G1 phase at 25 uM measured after 4 hrs by PI staining based flow cytometry analysis (reference value: 35.7%); type: functional
Leishmania donovani [15] = assay: Induction of cell cycle arrest in Leishmania donovani promastigotes assessed as accumulation of cells at G1 phase at 25 uM measured after 8 hrs by PI staining based flow cytometry analysis (reference value: 35.7%); type: functional
Leishmania donovani [16] = assay: Induction of cell cycle arrest in Leishmania donovani promastigotes assessed as accumulation of cells at G1 phase at 25 uM measured after 24 hrs by PI staining based flow cytometry analysis (reference value: 35.7%); type: functional
Leishmania donovani [17] = assay: Induction of cell cycle arrest in Leishmania donovani promastigotes assessed as accumulation of cells at S phase at 25 uM measured after 4 hrs by PI staining based flow cytometry analysis (reference value: 28.6%); type: functional
Leishmania donovani [18] = assay: Induction of cell cycle arrest in Leishmania donovani promastigotes assessed as accumulation of cells at S phase at 25 uM measured after 12 hrs by PI staining based flow cytometry analysis (reference value: 28.6%); type: functional
Leishmania donovani [19] = assay: Induction of cell cycle arrest in Leishmania donovani promastigotes assessed as accumulation of cells at S phase at 25 uM measured after 24 hrs by PI staining based flow cytometry analysis (reference value: 28.6%); type: functional
Leishmania donovani [20] = assay: Induction of cell cycle arrest in Leishmania donovani promastigotes assessed as accumulation of cells at G2/M phase at 25 uM measured after 4 hrs by PI staining based flow cytometry analysis (reference value: 35.7%); type: functional
Leishmania donovani [21] = assay: Induction of autophagy in Leishmania donovani promastigotes assessed as appearance of lipid droplets in cytoplasm at 25 uM measured after 24 hrs by Nile red staining based fluorescence microscopic analysis; type: functional, organism-based
Leishmania donovani [22] = assay: Induction of autophagy in Leishmania donovani promastigotes assessed as fold induction of ATG5 gene at 25 uM measured after 24 hrs by RT-PCR analysis; type: functional
Leishmania donovani [23] = assay: Induction of autophagy in Leishmania donovani promastigotes assessed as fold induction of ATG8 gene at 25 uM measured after 24 hrs by RT-PCR analysis; type: functional
Leishmania donovani [24] = assay: Induction of autophagy in Leishmania donovani promastigotes assessed as fold increase in Sir2 transcript level at 25 uM measured after 24 hrs by RT-PCR analysis; type: functional
Leishmania donovani [25] = assay: Induction of apoptosis in Leishmania donovani promastigotes assessed as appearance of disorganised mitochondrial cristae at 25 uM by transmission electron microscopy analysis; type: functional, organism-based

Molecule Cn1c(-c2ccc(OCC(=O)Nc3ccccn3)cc2)nc2ccccc2c1=O has an Activity (J774 [1]) of 79.57%, an Activity (Leishmania donovani [2]) of 82.68% and a remaining at 2 h, 10 ug/ml [3] of 95.5%. For the same molecule, the Activity (Leishmania donovani [4]) was greater than 50%, the Activity [5] was “Non-Toxic” and the “fold change (FC)” value (Splenocyte) was 4.96. For the same molecule, the Activity (Leishmania donovani [6]) was 66.7%, the Activity (Leishmania donovani [7]) was 68.4% and the Activity (Leishmania donovani [8]) was 85.8%. For the same molecule, the Activity [9] was “Non-Toxic”, the Activity (J774 [10]) was 72.23% and the Activity (J774 [11]) was “Active”. For the same molecule, the Activity (J774 [12]) was “Active”, the Activity (Leishmania donovani [13]) was 2.96 mM and the Activity (Leishmania donovani [14]) was 43.8%. The Activity (Leishmania donovani [15]) was 55.5%, the Activity (Leishmania donovani [16]) was 72.2% and the Activity (Leishmania donovani [17]) was 25.6%. For the same molecule, the Activity (Leishmania donovani [18]) was 15.5%, the Activity (Leishmania donovani [19]) was 13.9% and the Activity (Leishmania donovani [20]) was 30.6%. The Activity (Leishmania donovani [21]) was “Active”, the “fold change (FC)” value (Leishmania donovani [22]) was 2.84 and the “fold change (FC)” value (Leishmania donovani [23]) was 8.92. For the same molecule, the “fold change (FC)” value (Leishmania donovani [24]) was 4.95 and the Activity (Leishmania donovani [25]) was “Active”.

Reference: ChEMBL document CHEMBL5620379, “Discovery, SAR and mechanistic studies of quinazolinone-based acetamide derivatives in experimental visceral leishmaniasis” (Eur J Med Chem, 2023)
